# Earlier results as cited in patent US20220289809A1, “USE OF RELAXIN TO TREAT ATRIAL FIBRILLATION” (University of Pittsburgh - Of the Commonwealth System of …, priority 2012, published 2022).
# Test system: CHF canine model
structure (smiles),measurement,value
Cc1ccc(=O)n(-c2ccccc2)c1 [Pirfenidone],atrial CV,did not generate a significantly greater increase in atrial CV
same,fibrosis and AF,reverse fibrosis and attenuate AF
